According to patent EP0808325B1, “[…] […] SERIES FOR […] GABA RECEPTOR” (priority 1994, dated 1996):
pIC50: −log10 of the molar value.

What was measured:
[1] = biological target: GR complex; test: modulation of [35S]TBPS binding in rat cerebral cortex P2 homogenate; design: species or system Sprague-Dawley rats; IMAX: unit not given here; conditions: for pIC50: concentration of compounds to inhibit 50% of control [35S]TBPS binding, 2 nM [35S]TBPS, 25°C, 90 minutes; for IMAX: maximum inhibition of [35S]TBPS binding, I* = Inactive
Procedure: We performed several experiments to determine the nature of the modulation of [^35S]TBPS as affected by the compounds of the invention.
These procedures were performed as follows:
Brains from male Sprague-Dawley rats were removed immediately following sacrifice and the cerebral cortices dissected over ice. […] Briefly, the cortices were gently homogenized in 0.32 M sucrose followed by centrifugation at 1000 x g for 10 minutes. The supernatant was collected and centrifuged at 9000 x g for 20 minutes. The resultant P2 pellet was suspended as a 10% (original wet weight/volume) suspension in 50 mM Na/K phosphate buffer (pH 7.4) 200 mM NaCI to form the homogenate.
One hundred microliter […] aliquots of the P2 homogenate (0.5 milligrams (mg) protein) were incubated with 2 nanomolar (nM) [^35S]TBPS (70-110 curies/millimole;, New England Nuclear, Boston, MA) in the presence or absence of the naturally occurring steroids or their synthetic derivatives to be tested. The tested compounds were dissolved in dimethylsulfoxide (Baker Chem. Co., Phillipsbury, NJ) and added to the incubation mixture in 5 µL aliquots. The incubation mixture was brought to a final volume of 1 mL with buffer. Nonspecific binding was defined as binding in the presence of […]. The effect and specificity of GABA (Sigma Chem. Co., St. Louis, MO) was evaluated by performing all assays in the presence of GABA plus (+)bicuculline (Sigma Chem. Co.). Incubations maintained at 25°C for 90 minutes (steady state conditions) were terminated by rapid filtration through glass fiber filters (No. 32, Schleicher and Schuell, Keene, NH). Filter-bound radioactivity was quantitated by liquid scintillation spectrophotometry.
Various compounds were screened to determine their potential as modulators of [^35S]TBPS binding in vitro. These assays were performed in accordance with the above discussed procedures. […] It is an indication of a compound's in vitro potency. Maximum inhibition is an indication of a compound's in vitro efficacy.

[2] = tested on: metrazol induced convulsions; test: animal or person; type: in vivo, mice; conditions: IP
Procedure: Experiments were also performed to determine the physiological relevance of neuroactive steroid and GABA receptor interactions by assessing the ability of the compounds of and used in the invention to prevent metrazol induced convulsions in mice. […] The time to onset of myoclonus (presence of forelimb clonic activity) induced by metrazol was determined by observing each mouse for a period of 30 minutes. […]
The anticonvulsant tests are similar to that described above. […] The number of animals with tonic and/or clonic convulsions was recorded. In the maximal electroshock test, 50 mA of current at 60 Hz was delivered through corneal electrodes for 200 msec to induce tonic seizure. The ability of compounds to abolish the tonic component was defined as the endpoint. General CNS depression potential was determined by a rotorod test 10 minutes after the injection of compounds where the number of mice staying on a rotating (6 rpm) rod for 1 minute in one of the three trials was determined. […]

[3] = tested on: mice; test: elevated plus-maze; type: in vivo, N.I.H. Swiss-Webster mice
Source text: The theoretical basis for the elevated plus-maze test is similar to that of the light/dark transition test. As described by Pellow et al., J. Neurosci. Meth 14:149-167 (1985), the elevated plus-maze apparatus is designed to utilize the mice's natural aversion to open spaces. The apparatus consists of two open-arms and two enclosed-arms. The elevated plus-maze test allows for two measures of anxiety, the number of entries into the open-arms and the time spent on the open-arms, both expressed as a percentage of the total number of entries and time spent in/on both the open-arms and enclosed-arms.
Male N.I.H. Swiss-Webster mice (Harlan, Indianapolis, IN) weighing 15-20 g were housed four per cage in polyethylene cages with sawdust bedding. The colony room was environmentally controlled (22°C) with a 12 hr light/dark cycle (0600-1800 hr). Food and water were available ad libitum, except during testing. The experiments were run from 0700-1500 hr and groups were counterbalanced for time of day effects. Mice were only administered drug or vehicle once.
The method used was previously described (Lister, Psychopharmacol. 92:180-185 (1987)). The apparatus included two open arms perpendicular to two enclosed arms elevated 50 cm from the floor. Each arm was 50 cm long and the walls of the enclosed arms were 40 cm tall. The maze was made completely of black plexiglass. Incandescent 200 W light bulbs were above each of the open arms to produce a strong contrast between the open arms and the enclosed arms.
Ten minutes after an injection, the N.I.H. Swiss-Webster mice were placed in the center of the plus-maze facing an open arm. During the 5 min test period, the number of entries onto the open arms and the enclosed arms, and the time spent in the open arms and enclosed arms were measured. All four paws had to be within an arm for the dependent variable to be measured. Therefore, the time spent in the center of the maze is not counted, so the total time spent in the open arms and the enclosed arms may not equal 5 min. […]

[4] = 50% hpbcd, 10 mg/kg, 10 minutes prior to metrazol (85 mg/kg)

With `CC(O)C1CCC2C3CCC4CC(C)(O)CCC4(C)C3CCC12C` (stereo not drawn) [3α,20α-dihydroxy-3β-methyl-5α-pregnane] the pIC50 ([1]; no unit printed) was 6.78, the IMAX [1] was 52 and the “% Protected” value ([2]; micro soln., 100 mg/kg) was 60%. The “% Control” value ([3]; IV, micro soln., 10 mg/kg) was 174.5%.
For `CC(=O)OCC(=O)[C@H]1CC[C@H]2[C@@H]3CC[C@H]4C[C@H](O)CC[C@]4(C)[C@H]3CC[C@]12C` [3α,21-dihydroxy-5α-pregnan-20-one 21-acetate], the pIC50 ([1]; no unit printed) was 7.12, the IMAX [1] was 99 and the “% Protected” value [2, 4] was 50%. The “% Control” value ([3]; IP, 50% hpbcd, 10 mg/kg) was 133%.
For `C[C@]12CC[C@H]3[C@@H](CC[C@@H]4C[C@@](O)(C(F)(F)F)CC[C@@H]43)[C@@H]1CC[C@@H]2C(=O)CO` [3α,21-Dihydroxy-3β-trifluoromethyl-5β-19-norpregnan-20-one], the pIC50 ([1]; no unit printed) was 6.61, the IMAX [1] was 100 and the “% Protected” value [2, 4] was 118.8%. The “% Control” value ([3]; IP, 50% hpbcd, 10 mg/kg) was 140%.
In the case of `C=C(C)C#CC1(O)CCC2(C)C(CCC3C2CCC2(C)C(C(C)=O)CCC32)C1` (stereo not drawn) [3α-hydroxy-3β-(3'-methyl-but-3'-en-1'-ynyl)-5α-pregnan-20-one], the pIC50 ([1]; no unit printed) was 7.06, the IMAX [1] was 95 and the “% Protected” value [2, 4] was 87.5%. The “% Control” value ([3]; IP, 50% hpbcd, 10 mg/kg) was 141%.
For `C[C@@]1(O)CC[C@@]2(C)[C@@H](CC[C@@H]3[C@@H]2CC[C@]2(C)[C@@H](C(=O)COC(=O)CCC(=O)O)CC[C@@H]32)C1` [3α,21-dihydroxy-3β-methyl-5α-pregnan-20-one 21-hemisuccinate], the pIC50 ([1]; no unit printed) was 6.62, the IMAX [1] was 92 and the “% Protected” value ([2]; water, 10 mg/kg) was 37.5%.
For `C#C[C@@]1(O)CC[C@@]2(C)[C@H](CC[C@@H]3[C@@H]2CC[C@]2(C)[C@@H](C(=O)COC(C)=O)CC[C@@H]32)C1` [3α,21-Dihydroxy-3β+ethynyl-5β-pregnan-20-one 21-acetate], the pIC50 ([1]; no unit printed) was 6.60, the IMAX [1] was 101 and the “% Protected” value [2, 4] was 62.5%. For the same molecule, the “% Control” value ([3]; IP, 50% hpbcd, 10 mg/kg) was 159%.
`CC(=O)[C@H]1CC[C@H]2[C@@H]3CC[C@@H]4C[C@@](O)(C#CC5CC5)CC[C@]4(C)[C@H]3CC[C@]12C` [3β-Cyclopropylethynyl-3α-hydroxy-5β-pregnan-20-one] was tested, and the pIC50 ([1]; no unit printed) was 7.66, the pIC50 ([1]; no unit printed, listed as 3β-(cyclopropyl)ethynyl-3α-hydroxy-5β-pregnan-20-one) was 7.49 and the IMAX [1] was 94. For the same molecule, the IMAX ([1]; listed as 3β-(cyclopropyl)ethynyl-3α-hydroxy-5β-pregnan-20-one) was 97 and the “% Protected” value [2, 4] was 87.5%.
With “Bis (3α,21-dihydroxy-3β-trifluoromethyl-5β-pregnan-20-one) 21-hemisuccinate” the pIC50 ([1]; no unit printed) was 6.72, the IMAX [1] was 23 and the “% Protected” value [2, 4] was 25%. For the same molecule, the “% Control” value ([3]; IP, 50% hpbcd, 10 mg/kg) was 92%.
With `C#C[C@@]1(O)CC[C@@]2(C)[C@H](CC[C@@H]3[C@@H]2CC[C@]2(C)[C@@H](C(=O)COC(=O)CCC(=O)OCC(=O)[C@H]4CC[C@H]5[C@@H]6CC[C@@H]7C[C@@](O)(C#C)CC[C@]7(C)[C@H]6CC[C@]45C)CC[C@@H]32)C1` [Bis (3α,21-dihydroxy-3β-ethynyl-5β-pregnan-20-one) 21-hemisuccinate] the pIC50 ([1]; no unit printed) was 7.17, the IMAX [1] was 56 and the “% Protected” value [2, 4] was 37.5%.
For `C[C@@]1(O)CC[C@@]2(C)[C@@H](CC[C@@H]3[C@@H]2CC[C@]2(C)[C@@H](C(=O)CO)CC[C@@H]32)C1` [3α,21-dihydroxy-3β-methyl-5α-pregnan-20-one], the pIC50 ([1]; no unit printed) was 6.59, the IMAX [1] was 96 and the “% Protected” value [2, 4] was 87.5%.
For `CC(=O)C1CCC2C3CCC4CC(O)(C(F)(F)F)CCC4(C)C3C(=O)CC12C` (stereo not drawn) [3α-Hydroxy-3β-trifluoromethyl-5β-pregnan-11,20-dione], the “% Control” value ([3]; IP, 50% hpbcd, 10 mg/kg) was 112%.
In the case of `C=C(C)C#C[C@@]1(O)CC[C@@]2(C)[C@H](CC[C@@H]3[C@@H]2CC[C@]2(C)[C@@H](C(C)=O)CC[C@@H]32)C1` [3α-hydroxy-3β-(3'-methyl-but-3'-en-1'-ynyl)-5β-pregnan-20-one], the pIC50 ([1]; no unit printed) was 7.62, the IMAX [1] was 91 and the “% Protected” value [2, 4] was 100%. The “% Control” value ([3]; IP, 50% hpbcd, 10 mg/kg) was 155%.
For `C#C[C@@]1(O)CC[C@@]2(C)[C@H](CC[C@@H]3[C@@H]2CC[C@]2(C)[C@@H](C(C)O)CC[C@@H]32)C1` (stereo partly drawn) [3α,20-Dihydroxy-3β-ethynyl-5β-pregnane], the “% Control” value ([3]; IP, dmso, 10 mg/kg) was 178%.
For `C[C@]12CC[C@](O)(CF)C[C@@H]1CC[C@@H]1[C@@H]2CC[C@]2(C)[C@@H](C(=O)CO)CC[C@@H]12` [3α,21-dihydroxy-3β-fluoromethyl-5α-pregnan-20-one], the pIC50 ([1]; no unit printed) was 6.23, the IMAX [1] was 101 and the “% Protected” value [2, 4] was 25%. For the same molecule, the “% Control” value ([3]; IP, 50% hpbcd, 10 mg/kg) was 109%.
`C#C[C@@]1(O)CC[C@@]2(C)[C@H](CC[C@H]3[C@@H]4CC[C@H](C(C)=O)[C@@]4(C)CC(=O)[C@@H]32)C1` [3β-Ethynyl-3α-hydroxy-5β-pregnan-11,20-dione] was tested, and the “% Control” value ([3]; IP, 50% hpbcd, 5 mg/kg) was 235.9%.
For `C[C@@]1(O)CC[C@@]2(C)[C@@H](CC[C@@H]3[C@@H]2CC[C@]2(C)[C@@H](C(=O)COC(=O)CCC(=O)[O-])CC[C@@H]32)C1.[Na+]` [3α,21-dihydroxy-3β-methyl-5α-pregnan-20-one 21-Hemisuccinate, sodium salt], the pIC50 ([1]; unit inferred, sodium salt) was 6.68, the IMAX [1] was 104 and the “% Protected” value ([2]; micro soln., 10 mg/kg) was 11.11%.
In the case of `C#C[C@@]1(O)CC[C@@]2(C)[C@H](CC[C@@H]3[C@@H]2CC[C@]2(C)[C@@H]([C@@H](C)O)CC[C@@H]32)C1` [3α,20β-dihydroxy-3β-ethynyl-5β-pregnane, 3β-Ethynyl-3α,20β-dihydroxy-5β-pregnane], the pIC50 ([1]; no unit printed) was 6.16, the IMAX [1] was 77 and the “% Protected” value [2, 4] was 25%.
With `C#C[C@@]1(O)CC[C@@]2(C)[C@H](CC[C@H]3[C@@H]4CC[C@H](C(C)=O)[C@@]4(C)C=C[C@@H]32)C1` [3β-Ethynyl-3α-hydroxy-5β-pregn-11-en-20-one] the “% Protected” value [2, 4] was 75% and the “% Control” value ([3]; IP, 50% hpbcd, 10 mg/kg) was 233%.
In the case of `CC(=O)OCC(=O)[C@H]1CC[C@H]2[C@@H]3CC[C@@H]4C[C@H](O)CC[C@]4(C)[C@H]3CC[C@]12C` [3α,21-dihydroxy-5β-pregnan-20-one 21-acetate], the pIC50 ([1]; no unit printed) was 6.92, the IMAX [1] was 49 and the “% Protected” value [2, 4] was 25%.
For `CC(=O)[C@H]1CC[C@H]2[C@@H]3CC[C@H]4C[C@](C)(O)CC[C@@H]4[C@H]3CC[C@]12C` [3α-hydroxy-3β-methyl-5α-19-nor-pregnan-20-one], the pIC50 ([1]; no unit printed) was 7.04, the IMAX [1] was 80 and the “% Protected” value ([2]; micro soln., 10 mg/kg) was 37.5%.
With `C[C@]12CC[C@](O)(C(F)(F)F)C[C@H]1CC[C@@H]1[C@@H]2CC[C@]2(C)[C@@H](C(=O)COC(=O)CCC(=O)O)CC[C@@H]12` [3α,21-Dihydroxy-3β-trifluoromethyl-5β-pregnan-20-one, 21-hemisuccinate] the pIC50 ([1]; no unit printed) was 6.19, the IMAX [1] was 101 and the “% Protected” value ([2]; water, 10 mg/kg) was 50%.
